Our source for the IC50 values is patent publication US4804743A, “Proline-containing renin inhibitors” (Warner-Lambert Copmany, priority 1987, dated 1989).

The test addresses T1, renin (Homo sapiens, UniProt P00797).
T1 sequence (P00797 67-406): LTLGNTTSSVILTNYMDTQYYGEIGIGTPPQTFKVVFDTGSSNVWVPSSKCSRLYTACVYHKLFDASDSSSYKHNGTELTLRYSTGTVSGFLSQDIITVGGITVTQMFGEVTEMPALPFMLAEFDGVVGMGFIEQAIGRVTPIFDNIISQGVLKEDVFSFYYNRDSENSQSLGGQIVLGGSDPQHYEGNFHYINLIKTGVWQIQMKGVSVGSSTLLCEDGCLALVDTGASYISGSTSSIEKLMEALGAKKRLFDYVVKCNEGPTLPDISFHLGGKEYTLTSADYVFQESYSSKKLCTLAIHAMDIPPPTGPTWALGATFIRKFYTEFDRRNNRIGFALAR
Nature of the test: in vitro renin inhibitory activity, radioimmunoassay for angiotensin I. The format is biochemical. Particulars: renin incubated two hours at 37° with substrate angiotensinogen; angiotensin I measured by radioimmunoassay. Here is the method:
The effectiveness of the aforementioned compounds is determined by a test for in vitro renin inhibitory activity. This activity is determined by a standard radioimmunoassay for angiotensin I. In this assay the enzyme, renin, incubated for two hours at 37° in the presence of a substrate, angiotensinogen, generates the product, angiotensin I. Test compounds are added to the incubation mixture. Relative activity is reported as the IC50, which is the molar concentration of test compound causing a 50% inhibition of the renin activity.

The IC50 is the midpoint of a concentration-inhibition curve. High values mean weaker potency, low ones greater potency. Turning to “BOC-PHE-LEU-STA-GLN-PRO-OCH3 [Example 8]”, it took 1.1 µM to reach half-maximal inhibition (IC50).
